“And” between values parts separate entries of the source, which are not always exact repeats. Equal entries are not always repeated.
Experiment: molar heat capacity at constant pressure
Conditions: 101.33 kPa, Crystal

Clc1cc(Cl)cc(Cl)c1 [1,3,5-trichlorobenzene]
Conditions | molar heat capacity at constant pressure
6.3 K | 0.73 J/K/mol
6.76 K | 1.13 J/K/mol
7.5 K | 1.88 J/K/mol
7.61 K | 1.64 J/K/mol
8.27 K | 2.46 J/K/mol
8.49 K | 2.76 J/K/mol
9.54 K | 3.28 J/K/mol
9.57 K | 3.32 J/K/mol
10 K | 3.78 J/K/mol
10.48 K | 4.28 J/K/mol
10.78 K | 4.56 J/K/mol
11.23 K | 4.67 J/K/mol
11.76 K | 5.07 J/K/mol
12.18 K | 5.67 J/K/mol
13.16 K | 7.41 J/K/mol
14.33 K | 8.56 J/K/mol
14.68 K | 9.1 J/K/mol
15 K | 9.58 J/K/mol
16.47 K | 11.78 J/K/mol
16.54 K | 11.86 J/K/mol
18.11 K | 14.04 J/K/mol
18.46 K | 14.51 J/K/mol
19.49 K | 16.03 J/K/mol
20 K | 16.74 J/K/mol
20.47 K | 17.39 J/K/mol
20.67 K | 17.88 J/K/mol
21.77 K | 19.17 J/K/mol
22.76 K | 20.24 J/K/mol
24.03 K | 21.5 J/K/mol
25 K | 22.66 J/K/mol
25.53 K | 23.3 J/K/mol
26.89 K | 24.95 J/K/mol
26.99 K | 25.08 J/K/mol
28.15 K | 26.53 J/K/mol
29.75 K | 28.33 J/K/mol
30 K | 28.58 J/K/mol
32.12 K | 30.66 J/K/mol
34.24 K | 32.73 J/K/mol
36.16 K | 34.21 J/K/mol
37.93 K | 35.9 J/K/mol
39.58 K | 37.3 J/K/mol
40 K | 37.64 J/K/mol
41.88 K | 39.13 J/K/mol
44.77 K | 41.44 J/K/mol
47.4 K | 43.42 J/K/mol
49.84 K | 45.24 J/K/mol
50 K | 45.36 J/K/mol
52.12 K | 46.94 J/K/mol
54.28 K | 48.44 J/K/mol
56.33 K | 49.86 J/K/mol
58.29 K | 51.22 J/K/mol
60 K | 52.37 J/K/mol
60.17 K | 52.49 J/K/mol
61.98 K | 53.68 J/K/mol
63.73 K | 54.83 J/K/mol
65.43 K | 55.89 J/K/mol
67.08 K | 56.99 J/K/mol
68.68 K | 57.99 J/K/mol
70 K | 58.81 J/K/mol
70.25 K | 58.96 J/K/mol
71.78 K | 59.87 J/K/mol
73.27 K | 60.75 J/K/mol
74.74 K | 61.66 J/K/mol
76.18 K | 62.52 J/K/mol
77.59 K | 63.36 J/K/mol
78.98 K | 64.16 J/K/mol
80 K | 65.01 J/K/mol
80.55 K | 65.45 J/K/mol
81.45 K | 65.93 J/K/mol
82.22 K | 66.44 J/K/mol
83.86 K | 67.37 J/K/mol
83.98 K | 67.39 J/K/mol
85.47 K | 68.28 J/K/mol
86.45 K | 68.77 J/K/mol
87.05 K | 69.08 J/K/mol
88.6 K | 70 J/K/mol
88.86 K | 70.1 J/K/mol
90 K | 70.62 J/K/mol
90.14 K | 70.69 J/K/mol
91.23 K | 71.17 J/K/mol
91.65 K | 71.42 J/K/mol
93.14 K | 72.19 J/K/mol
93.56 K | 72.31 J/K/mol
94.61 K | 72.86 J/K/mol
94.95 K | 73 J/K/mol
95.84 K | 73.25 J/K/mol
96.07 K | 73.4 J/K/mol
97.51 K | 74.13 J/K/mol
98.08 K | 74.45 J/K/mol
98.92 K | 74.86 J/K/mol
100 K | 75.37 J/K/mol
100.29 K | 74.9 J/K/mol
101.72 K | 76.37 J/K/mol
102.39 K | 76.72 J/K/mol
102.47 K | 76.71 J/K/mol
103.09 K | 76.88 J/K/mol
104.45 K | 77.52 J/K/mol
104.61 K | 77.48 J/K/mol
105.8 K | 78.18 J/K/mol
105.97 K | 78.26 J/K/mol
106.72 K | 78.56 J/K/mol
107.13 K | 78.9 J/K/mol
107.15 K | 78.92 J/K/mol
108.46 K | 79.49 J/K/mol
108.81 K | 79.58 J/K/mol
109.46 K | 80.02 J/K/mol
109.77 K | 80.18 J/K/mol
110 K | 80.28 J/K/mol
110.87 K | 80.59 J/K/mol
111.07 K | 80.74 J/K/mol
111.47 K | 80.93 J/K/mol
112.36 K | 81.34 J/K/mol
112.87 K | 81.56 J/K/mol
113.65 K | 81.98 J/K/mol
114.92 K | 82.54 J/K/mol and 82.67 J/K/mol
115.68 K | 83.09 J/K/mol
116.19 K | 83.21 J/K/mol
116.91 K | 83.54 J/K/mol
118.88 K | 84.5 J/K/mol
119.52 K | 84.75 J/K/mol
119.79 K | 85.04 J/K/mol
120 K | 85.15 J/K/mol
120.83 K | 85.51 J/K/mol
122.75 K | 86.55 J/K/mol
124.68 K | 87.28 J/K/mol
125.93 K | 87.73 J/K/mol
126.58 K | 88.03 J/K/mol
127.78 K | 88.73 J/K/mol
128.47 K | 88.92 J/K/mol
129.07 K | 89.19 J/K/mol
130 K | 89.68 J/K/mol
130.33 K | 89.86 J/K/mol
131.66 K | 90.66 J/K/mol
132.19 K | 90.72 J/K/mol
134.03 K | 91.56 J/K/mol
135.22 K | 92.02 J/K/mol
135.48 K | 92.36 J/K/mol
135.85 K | 92.4 J/K/mol
137.66 K | 93.21 J/K/mol
138.23 K | 93.42 J/K/mol
139.24 K | 94.03 J/K/mol
140 K | 94.33 J/K/mol
141.21 K | 94.75 J/K/mol
141.25 K | 94.81 J/K/mol
142.95 K | 95.67 J/K/mol
144.16 K | 96.04 J/K/mol
146.61 K | 97.27 J/K/mol
147.08 K | 97.34 J/K/mol
149.97 K | 98.63 J/K/mol
150 K | 98.65 J/K/mol
150.22 K | 98.83 J/K/mol
152.83 K | 99.87 J/K/mol
153.79 K | 100.35 J/K/mol
155.66 K | 101.1 J/K/mol
157.32 K | 101.86 J/K/mol
158.47 K | 102.3 J/K/mol
160 K | 102.99 J/K/mol
160.81 K | 103.34 J/K/mol
161.25 K | 103.49 J/K/mol
164.01 K | 104.67 J/K/mol
164.27 K | 104.83 J/K/mol
166.74 K | 105.83 J/K/mol
167.69 K | 106.28 J/K/mol
169.46 K | 106.98 J/K/mol
170 K | 107.22 J/K/mol

Reference: the NIST ThermoML archive (doi:10.1021/je049762q)
